Experimental data: patent US7524834B2, “Sterile powders, formulations, and methods for producing the same” (AstraZeneca AB, priority 1997, dated 2009)

Tests used:
spore suspension = test: Decimal reduction time of spores in inoculated glucocorticosteroids at 110° C. (Example 7); conditions: for D110 value: Heating at 110° C., spore suspension different from Example 6
Experimental: 1 g of micronized budesonide, prednisolone and beclomethasone dipropionate and 0.5 g of rofleponide were inoculated with a different spore suspension to the one used in Example 6.
The samples were heat treated at 110° C. A sample was withdrawn after various heating times. The number of spores/g were determined by a pour plate technique according to US Pharmacopoeia 23/NF18, 1995, pp. 1681-1686, especially p. 1684.
From the number of spores before and after heat treatment the log reduction of spores and decimal reduction time (time needed at a specified temperature to reduce the number of microorganisms with one log) was calculated.

[1] = tested on: Bacillus subtilis (globigii) spores; test: Heat sterilization at 110° C. of powder inoculated with spore suspension (Example 2); conditions: for Spore population, After / Spore population, Before: 0.5 g sample; for Spore population, After: after 110° C. for 3 hours and 10 min; for Spore population, Before: before heat treatment; for Spore log reduction: 110° C. for 3 hours and 10 min
Experimental: Samples of 0.5 g of budesonide and of 0.5 g of calcium stearate were each inoculated with 0.1 ml of a Steris Bacillus subtilis (globigii) (Lot#LG126B) spore suspension containing 1.5×10^7 spores. Each sample was subjected to a temperature of 110° C. for 3 hours and 10 min in a Baxter Constant Temperature Oven using the same technique as in Example 1. The spore population of the samples was measured and the results obtained are shown below in Table 2.

Bacillus subtilis spores = test: Spore kill kinetics in inoculated micronized budesonide at 100, 110, 120° C., pour plate (Example 6)
Experimental: 5 g of micronized budesonide was inoculated with approximately 2 ml of a spore suspension of Bacillus subtilis.
The substance and the spore suspension were mixed and dried for approximately 3 hours at 55° C. The inoculated and dried budesonide was mixed with 20-40 g of non-inoculated micronized budesonide.
5 g portions of this sample were heat treated at 100° C., 110° C. or 120° C. in a Heraeus ST 5060 heating apparatus. A 1 g sample was withdrawn after various heating times at the respective heating temperatures. Each such 1 g sample was transferred to 10 ml of dilution medium pH 7.2. Appropriate dilutions were made in 0.1% Peptone Aqueous solution and the number of spores/g were determined by a pour plate technique according to US Pharmacopoeia 23/NF18, 1995, pp. 1681-1686, especially p. 1684.
The number of spores before heat treatment were determined in samples heated at 80° C. for 10 min in order to kill the vegetative cells.
The results are shown in Table 6. where the DT value is the amount of time in minutes required to obtain a log 1 reduction in the number of spores before and after heat treatment at the temperature T (in ° C.).

A. niger = test: Heat resistance of microorganisms inoculated on budesonide powder (Example 3)
Experimental: (§1) Tests were performed to evaluate the heat resistance of various naturally occurring microorganisms.
(§2) Samples of 0.5 g of budesonide powder were each inoculated with approximately 10^2-10^3 viable ATCC microorganisms in 120 ml open-ended polypropylene container. Each sample was subjected to a temperature of 110° C. for 3 hours and 10 min. The microorganism population of the samples was measured before and after heat treatment and the results obtained are shown below in Table 3.

C. sporegenes = test: as above
Experimental: as §1, §2

B. subtilis ATCC 6633 = test: as above; conditions: for Microorganism population, After: after 110° C. for 3 hours and 10 min; for Microorganism population, Before: before heat treatment
Experimental: as §1, §2

Ps. Aeruginosa = test: as above
Experimental: as §1, §2

C. albicans = test: as above
Experimental: as §1, §2

M. luteus = test: as above
Experimental: as §1, §2

E. coli = test: as above
Experimental: as §1, §2

S. epidermidis = test: as above
Experimental: as §1, §2

Salmonella typhi = test: as above
Experimental: as §1, §2

[2] = 100° C. series, before heat treatment (80° C. 10 min)
[3] = 110° C. series, before heat treatment (80° C. 10 min)
[4] = 120° C. series, before heat treatment (80° C. 10 min)
[5] = after 110° C. for 3 hours and 10 min
[6] = B. subtilis ATCC 6633, low inoculum

## CCC(=O)OCC(=O)[C@@]1(OC(=O)CC)[C@@H](C)C[C@H]2[C@@H]3CCC4=CC(=O)C=C[C@]4(C)[C@@]3(Cl)[C@@H](O)C[C@@]21C [Beclomethasone dipropionate, beclomethasone dipropionate]
Spore suspension
  D110 value: 72.7 min

## calcium stearate
[1]
  Spore population, After: 3.3 × 10^6 spores
  Spore population, Before: 1.5 × 10^7 spores
  Spore log reduction: less than 0.7

## CCCC1O[C@@H]2C[C@H]3[C@@H]4CCC5=CC(=O)C=C[C@]5(C)[C@H]4[C@@H](O)C[C@]3(C)[C@]2(C(=O)CO)O1 (stereo partly shown) [Budesonide, budesonide]
[1]
  Spore population, After: <10 spores
  Spore population, Before: 1.5 × 10^7 spores
  Spore log reduction: greater than 6.2
Spore suspension
  D110 value: 41 min
Bacillus subtilis spores; 100° C.
  D100 (time for log 1 reduction in number of spores): D100 = 41.5 min; correlation coefficient = −0.0996 This means that it takes 6 × 41.5 minutes to obtain a log 6 reduction in the number of spores at a temperature of 100 °C
Bacillus subtilis spores; [2]
  log spores/g: 6.81
  spores/g: 6.5 × 10^6 spores/g
Bacillus subtilis spores; 100° C., 15 min
  log spores/g: 3.68
  spores/g: 4.8 × 10^3 spores/g
Bacillus subtilis spores; 100° C., 45 min
  log spores/g: 2.85
  spores/g: 7.1 × 10^2 spores/g
Bacillus subtilis spores; 100° C., 75 min
  log spores/g: 2.23
  spores/g: 1.7 × 10^2 spores/g
Bacillus subtilis spores; 110° C.
  D110 (time for log 1 reduction in number of spores): D110 = 8.3 min; correlation coefficient = −0.995 This means that it takes 6 × 8.3 minutes to obtain a log 6 reduction in the number of spores at a temperature of 110 °C
Bacillus subtilis spores; [3]
  log spores/g: 6.20
  spores/g: 2 × 10^6 spores/g
Bacillus subtilis spores; 110° C., 5 min
  log spores/g: 4.32
  spores/g: 2.08 × 10^4 spores/g
Bacillus subtilis spores; 110° C., 15 min
  log spores/g: 2.97
  spores/g: 9.25 × 10^2 spores/g
Bacillus subtilis spores; 110° C., 20 min
  log spores/g: 2.55
  spores/g: 3.55 × 10^2 spores/g
Bacillus subtilis spores; 120° C.
  D120 (time for log 1 reduction in number of spores): D120 = 4.1 min; correlation coefficient = −0.998 This means that it takes 6 × 4.1 minutes to obtain a log reduction in the number of spores at a temperature of 120 °C
Bacillus subtilis spores; [4]
  log spores/g: 6.19
  spores/g: 1.5 × 10^6 spores/g
Bacillus subtilis spores; 120° C., 4 min
  log spores/g: 2.28
  spores/g: 1.9 × 10^2 spores/g
Bacillus subtilis spores; 120° C., 6 min
  log spores/g: 1.74
  spores/g: 5.5 × 10^1 spores/g
Bacillus subtilis spores; 120° C., 8 min
  log spores/g: 1.30
  spores/g: 2 × 10^1 spores/g
A. niger; [5]
  Microorganism population, After: 0
A. niger; before heat treatment
  Microorganism population, Before: 260
C. sporegenes; [5]
  Microorganism population, After: 0
C. sporegenes; before heat treatment
  Microorganism population, Before: 160
B. subtilis ATCC 6633; B. subtilis ATCC 6633, high inoculum, singular bacillus species in 10^0 dilution plate
  Microorganism population, After: 1^1
B. subtilis ATCC 6633; B. subtilis ATCC 6633, high inoculum
  Microorganism population, Before: 1.2 × 10^5
B. subtilis ATCC 6633; [6]
  Microorganism population, After: 0
  Microorganism population, Before: 300
Ps. Aeruginosa; [5]
  Microorganism population, After: 0
Ps. Aeruginosa; before heat treatment
  Microorganism population, Before: 350
C. albicans; [5]
  Microorganism population, After: 0
C. albicans; before heat treatment
  Microorganism population, Before: 780
M. luteus; [5]
  Microorganism population, After: 0
M. luteus; before heat treatment
  Microorganism population, Before: 300
E. coli; [5]
  Microorganism population, After: 0
E. coli; before heat treatment
  Microorganism population, Before: 450
S. epidermidis; [5]
  Microorganism population, After: 0
S. epidermidis; before heat treatment
  Microorganism population, Before: 240
Salmonella typhi; [5]
  Microorganism population, After: 0
Salmonella typhi; before heat treatment
  Microorganism population, Before: 270

## CCC[C@@H]1O[C@@H]2C[C@H]3[C@@H]4C[C@H](F)C5=CC(=O)CC[C@]5(C)[C@@]4(F)[C@@H](O)C[C@]3(C)[C@]2(C(=O)CO)O1 [Rofleponide, rofleponide]
Spore suspension
  D110 value: 9.8 min
Spore suspension; full 1.0 g sample, cycle times ≧5 minutes at 110° C., D110 could not be calculated
  Spore kill: total kill

## C[C@]12C=CC(=O)C=C1CC[C@@H]1[C@@H]2[C@@H](O)C[C@@]2(C)[C@H]1CC[C@]2(O)C(=O)CO [Prednisolone, prednisolone]
Spore suspension
  D110 value: 73.8 min
